Values of other authors as cited in patent US6475518B1, “Methods and compositions for treatment of disorders associated with chlamydia and similar bacterial infection” (priority 1998, dated 2002).

Assays:
C. pneumoniae [1] = details: Gupta S, et al., Circulation 1997
C. pneumoniae [2] = details: Gurfinkel E, et al., Lancet 1997; limited numbers, no prolonged follow-up yet

Compound | Clinical benefit of monotherapy (C. pneumoniae [1]) | Clinical benefit of sole therapy (C. pneumoniae [2])
CC[C@H]1OC(=O)[C@H](C)[C@@H](O[C@H]2C[C@@](C)(OC)[C@@H](O)[C@H](C)O2)[C@H](C)[C@@H](O[C@@H]2O[C@H](C)C[C@H](N(C)C)[C@H]2O)[C@](C)(O)C[C@@H](C)CN(C)[C@H](C)[C@@H](O)[C@]1(C)O [azithromycin] | the benefit was not sustained after initial therapy | 
CC[C@H]1OC(=O)[C@H](C)[C@@H](O[C@H]2C[C@@](C)(OC)[C@@H](O)[C@H](C)O2)[C@H](C)[C@@H](O[C@@H]2O[C@H](C)C[C@H](N(C)C)[C@H]2O)[C@](C)(O)C[C@@H](C)/C(=N\OCOCCOC)[C@H](C)[C@@H](O)[C@]1(C)O [roxithromycin] |  | a benefit was described
